Experimental data published in US20160075651A1, “GLYCOLIPID INHIBITION USING IMINOSUGARS” (UNITHER VIROLOGY, LLC, priority 2013, published 2016).
Substitutions are numbered along the chain they refer to. Read-outs that look alike come from different tables or passages of the source.

Key:
[1] = system: glucosylceramide and lactosylceramide in Huh7.5 cells; assay: Cellular glucosylceramide and lactosylceramide measurement in Huh7.5 hepatoma cells (lipidomics); format: cell-based; conditions: human hepatoma cells (Huh7.5), 10 μM, 4 days
Procedure: Glycosphingolipids (including GlcCer and LacCer) were measured according to Wolf, C. and Quinn, P. J. Progress in lipid research (2008) 47, 15-36. Briefly, chloroform-methanol extracts of cellular lipids were subjected to HPLC to isolate the glycosphingolipid species from other cellular lipids, then subjected to two-dimentional mass-spectromertry with internal standards in order to quantify particular glycosphingolipid species.
Huh7.5 cells were grown in DMEM supplemented with 100 U/ml penicillin, […] streptomycin, 2 mM L-glutamine, 1×MEM, and 10% FBS. All incubations were at 37° C./5% CO2. The effect of iminosugar treatment on cellular lipid profiles was determined in cells after incubation for 4 days in the presence or absence of iminosugars, at which point they were harvested using trypsin/EDTA, washed 3 times in cold PBS, counted using trypan blue staining, and final cell pellets were resuspended in methanol:acetone (vol 1:1) prior to lipid profiling, A small volume of each sample was used for total protein estimation using the Bradford protein assay (Bio-Rad).
The methodology has been described in detail previously (Wolf, C., Quinn, P. J., Lipidomics: Practical aspects and applications. Progress in Lipid Research 2008, 47, 15-36: Quinn, P. J., Rainteau, D., Wolf, C., Lipidomics of the red cell in diagnosis of human disorders. Methods Mol Biol 2009, 579, 127-159). […]

[2] = system: ER alpha glucosidase; assay: Free oligosaccharide analysis (measure of ER alpha glucosidase inhibition); format: cell-based; conditions: FIG. 13, compared with UV-4
Procedure: Free glucosyl oligosaccharides were measured according to Alonzi et al. Biochem. J. (2008) 409, 571-580.

[3] = biological target: T1, ceramide glucosyltransferase (Homo sapiens, UniProt Q16739); assay: Ceramide glucosyltransferase cellular assay (GM3 reduction in HL60 cells, NP-HPLC); format: cell-based; conditions: for IC50: 3 days, GM3 peak area
T1 construct: endogenous in cells; host or cells: HL60 cells
T1 sequence (Q16739 1-394): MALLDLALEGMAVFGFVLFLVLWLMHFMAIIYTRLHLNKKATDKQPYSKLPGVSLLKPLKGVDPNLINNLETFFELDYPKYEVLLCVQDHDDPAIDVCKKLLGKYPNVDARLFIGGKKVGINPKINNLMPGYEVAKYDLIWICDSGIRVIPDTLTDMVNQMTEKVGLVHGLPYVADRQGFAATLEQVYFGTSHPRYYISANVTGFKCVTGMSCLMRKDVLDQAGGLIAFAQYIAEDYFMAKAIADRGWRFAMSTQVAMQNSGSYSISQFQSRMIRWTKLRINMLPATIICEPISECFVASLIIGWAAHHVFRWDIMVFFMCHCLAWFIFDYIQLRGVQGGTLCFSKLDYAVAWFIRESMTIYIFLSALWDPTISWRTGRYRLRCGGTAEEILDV

[4] = biological target: T2, human placental β-glucocerebrosidase (Homo sapiens, UniProt P04062); assay: β-Glucocerebrosidase inhibition assay (4-methylumbelliferyl-β-glucoside, fluorogenic); format: biochemical
T2 construct: Human placental β-glucocerebrosidase was isolated and purified; from tissue; host or cells: human placenta
T2 sequence (P04062 40-536): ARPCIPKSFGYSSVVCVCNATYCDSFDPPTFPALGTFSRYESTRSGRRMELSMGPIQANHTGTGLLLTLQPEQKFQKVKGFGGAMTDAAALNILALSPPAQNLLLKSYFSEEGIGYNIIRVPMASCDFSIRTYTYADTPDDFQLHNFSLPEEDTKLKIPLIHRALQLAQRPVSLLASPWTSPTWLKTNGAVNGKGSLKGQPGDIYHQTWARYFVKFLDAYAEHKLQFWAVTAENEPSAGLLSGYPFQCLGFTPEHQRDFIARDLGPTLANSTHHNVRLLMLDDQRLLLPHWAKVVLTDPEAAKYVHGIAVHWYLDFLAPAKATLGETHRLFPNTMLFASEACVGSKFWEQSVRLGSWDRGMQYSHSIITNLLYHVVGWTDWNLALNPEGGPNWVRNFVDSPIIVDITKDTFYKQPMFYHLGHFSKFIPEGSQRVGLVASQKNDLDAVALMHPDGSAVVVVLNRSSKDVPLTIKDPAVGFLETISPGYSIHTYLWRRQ

[5] = biological target: T3, β-glucocerebrosidase (N370S mutant) (Homo sapiens, UniProt P04062, N409S); assay: β-Glucocerebrosidase activation (chaperone) assay in Gaucher N370S cells; format: cell-based; conditions: 3 days, versus untreated cells
T3 construct: mutant Gaucher lymphoblasts with the most common N370S mutation; endogenous in cells; host or cells: Gaucher (N370S) lymphoblasts
T3 sequence (P04062 40-536 N409S): T2 sequence (P04062 40-536) with N370S

Cc1c(C)c2c(c(C)c1OCCCCCN1C[C@H](O)[C@@H](O)[C@H](O)[C@H]1CO)CC[C@@](C)(CCC[C@H](C)CCC[C@H](C)CCCC(C)C)O2 [Top-DNJ, tocopheryl-pentyl deoxynojirimycin]
inhibition of the cellular glucosylceramide / lactosylceramide pathway [1]: near-complete inhibition
ER glucosidase inhibitory activity (free oligosaccharide analysis) [2]: virtually devoid of ER glucosidase inhibitory activity

COCCCCCCCCCN1C[C@H](O)[C@@H](O)[C@H](O)[C@H]1CO [UV4, N-(9-methoxynonyl)deoxynojirimycin]
IC50 [3]: 190 ± 21 nM
potency in cells relative to NB-DNJ ([3]; GM3 reduction, versus NB-DNJ (Zavesca)): approximately 100 times
IC50 ([4]; human placental enzyme, 0.5 mM 4-MU-β-glucoside, pH 5.2): 1850 ± 40 nM
Activation fold at 10 μM ([5]; 10 μM): 2.1 fold

[N-]=[N+]=Nc1ccc(NCCCCCCN2C[C@H](O)[C@@H](O)[C@H](O)[C@H]2CO)c([N+](=O)[O-])c1 [UV5, N—(N′-{4′-azido-2′-nitrophenyl)-6-aminohexyl)-deoxynojirimycin]
IC50 [3]: 49 ± 5 nM
IC50 [4]: 150 ± 30 nM
Activation fold (@ 1 μM) ([5]; 1 μM): 1.7 (@ 1 μM) fold
